{
  "source": "patent US20100028973A1",
  "about": "“METHOD FOR PRO[…] VIRUS, HOLLOW FIBER FOR CULTURING HEPATITIS VIRUS-INFECTED CELLS, AND USE THEREOF” (KYOTO UNIVERSITY, priority 2006, published 2010)",
  "test_system": "patient's serum-derived HCV",
  "assay": "HCV RNA in HuS-E/2 cells cultured in a hollow fiber and infected with patient's serum-derived HCV, with drug added (Example 5)",
  "assay_type": "cell-based, hepatitis C virus (HCV)",
  "settings": "NIM811 1 μg/ml; added after 24 hours of infection; HuS-E/2 cells in hollow fiber; collected after 3, 5 and 7 days; PCR",
  "procedure": "HuS-E/2 cells with a density of 1×10^5 cells/well were packed into a lumen of a hollow fiber of a cellulose triacetate hollow fiber module (Toyobo Co., Ltd.; Code: TMHFK-001) by applying a centrifugal force of 80 G for 90 seconds, and then were shake-cultured with use of a 12-well plate. After 24 hours, the culture fluid was replaced with 0.8 ml of a culture fluid, prepared with use of human hepatocellular serum-free culture fluid (Toyobo Co., Ltd.; Code: TMHHM-001), which contained serum-derived HCV with 2×10^5 genome copies/ml. After 24 hours of infection, the culture fluid was removed, and the HuS-E/2 cells were washed with PBS three times. Then, three types of new culture fluid were separately added, namely a culture fluid containing INF alpha (1000 IU/ml), a culture fluid containing NIM811 (1 μg/ml), and a culture fluid containing neither of them. Each of the culture fluids was replaced with a new one every two days. The HuS-E/2 cells were collected after 3, 5, and 7 days of infection with serum-derived HCV, and their total RNA was collected with use of a Sepasol I (Nacalai Tesque, Inc). The total RNA was assayed for HCV RNA by a PCR method.",
  "data": [
    {"smiles": "C/C=C/C[C@@H](C)[C@@H](O)[C@H]1C(=O)N[C@@H](CC)C(=O)N(C)CC(=O)N(C)[C@@H]([C@@H](C)CC)C(=O)N[C@@H](C(C)C)C(=O)N(C)[C@@H](CC(C)C)C(=O)N[C@@H](C)C(=O)N[C@H](C)C(=O)N(C)[C@@H](CC(C)C)C(=O)N(C)[C@@H](CC(C)C)C(=O)N(C)[C@@H](C(C)C)C(=O)N1C", "note": "[NIM811]", "values": [
      {"measurement": "proliferation of patient's serum-derived HCV in the cells (HCV RNA)", "value": "remarkably inhibits"}
    ]}
  ]
}
